In this test the test system is IL-2 production. The test is described as follows: Inhibition of IL-2 production in PHA-activated Jurkat cells (ELISA). It counts as cell-based. To be noted: Homo sapiens, PHA 2.5 μg/mL, 20 hours, IL-2 ELISA. As for the experimental part: Jurkat cells were placed in a 96 well plate (0.5 million cells per well in 1% FBS medium) then a test compound of this invention was added at different concentrations. After 10 minutes, the cells were activated with PHA (final concentration 2.5 μg/mL) and incubated for 20 hours at 37° C. under CO2. The final volume was 200 μL. Following incubation, the cells were centrifuged and the supernatants were collected and stored at −70° C. prior to assaying for IL-2 production. A commercial ELISA kit (IL-2 Eli-pair, Diaclone Research, Besancon, France) was used to detect production of IL-2, from which dose response curves were obtained. The IC50 value was calculated as the concentration at which 50% of maximum IL-2 production after stimulation was inhibited versus a non-stimulation control.

This is an account of results in patent US8119643B2, “Benzoimidazolyl-pyrazine compounds for inflammation and immune-related uses” (Synta Pharmaceuticals Corp., priority 2006, dated 2012).

The compound `COc1ccc2c(c1)nc(C(F)(F)F)n2-c1cnc(NC(=O)c2cc(Cl)ccc2F)cn1` [Compound 148, 5-Chloro-2-fluoro-N-[5-(5-methoxy-2-trifluoromethyl-benzoimidazol-1-yl)-pyrazin-2-yl]-benzamide] displayed an IC50 of 98 nM. To `COc1ccc2c(c1)nc(C(F)(F)F)n2-c1cnc(NC(=O)c2ccc(C(C)(C)C)cc2)cn1` [Compound 132, 4-tert-Butyl-N-[5-(5-methoxy-2-trifluoromethyl-benzoimidazol-1-yl)-pyrazin-2-yl]-benzamide] belongs over 1000 nM.

As for `COc1ccc2c(c1)nc(C(F)(F)F)n2-c1cnc(NCc2c(F)cccc2F)cn1` [Compound 37, (2,6-Difluoro-benzyl)-[5-(5-methoxy-2-trifluoromethyl-benzoimidazol-1-yl)-pyrazin-2-yl]-amine], the half-inhibitory concentration (IC50) was found to be 103 nM. For `CCCCCc1ccc(C(=O)Nc2cnc(-n3c(C(F)(F)F)nc4cc(OC)ccc43)cn2)cc1` [Compound 131, N-[5-(5-Methoxy-2-trifluoromethyl-benzoimidazol-1-yl)-pyrazin-2-yl]-4-pentyl-benzamide] the value was 331 nM. To `COc1ccc2c(c1)nc(C(F)(F)F)n2-c1cnc(NC(=O)c2ccccc2F)cn1` [Compound 5, 2-Fluoro-N-[5-(5-methoxy-2-trifluoromethyl-benzoimidazol-1-yl)-pyrazin-2-yl]-benzamide] belongs 20 nM; to `COc1ccc2c(c1)nc(C(F)(F)F)n2-c1cnc(NC(=O)c2cccc(Br)c2)cn1` [Compound 108, 3-Bromo-N-[5-(5-methoxy-2-trifluoromethyl-benzoimidazol-1-yl)-pyrazin-2-yl]-benzamide], 57 nM.

In turn, `COc1ccc2c(c1)nc(C(F)(F)F)n2-c1cnc(NC(=O)c2ccc(C(C)C)cc2)cn1` [Compound 141, 4-Isopropyl-N-[5-(5-methoxy-2-trifluoromethyl-benzoimidazol-1-yl)-pyrazin-2-yl]-benzamide] showed a concentration for half-maximal inhibition (IC50) of over 1000 nM. For `COc1ccc2c(c1)nc(C(F)(F)F)n2-c1cnc(NC(=O)c2ccc(SC)cc2)cn1` [Compound 119, N-[5-(5-Methoxy-2-trifluoromethyl-benzoimidazol-1-yl)-pyrazin-2-yl]-4-methylsulfanyl-benzamide] the value was 50 nM; for `COc1ccc2c(c1)nc(C(F)(F)F)n2-c1cnc(NC(=O)c2ccccc2OC)cn1` [Compound 111, 2-Methoxy-N-[5-(5-methoxy-2-trifluoromethyl-benzoimidazol-1-yl)-pyrazin-2-yl]-benzamide], over 1000 nM. `COc1ccc2c(c1)nc(C(F)(F)F)n2-c1cnc(NC(=O)c2ccc(C(F)(F)F)cc2)cn1` [Compound 137, N-[5-(5-Methoxy-2-trifluoromethyl-benzoimidazol-1-yl)-pyrazin-2-yl]-4-trifluoromethyl-benzamide] came in with an IC50 of 714 nM.

In the case of `COc1ccc(C(=O)Nc2cnc(-n3c(C(F)(F)F)nc4cc(OC)ccc43)cn2)c(OC)c1` [Compound 124, 2,4-Dimethoxy-N-[5-(5-methoxy-2-trifluoromethyl-benzoimidazol-1-yl)-pyrazin-2-yl]-benzamide], the concentration for half-maximal inhibition (IC50) is over 1000 nM. As to `COc1ccc2c(c1)nc(C(F)(F)F)n2-c1cnc(NC(=O)c2ccc(Cl)cc2)cn1` [Compound 91, 4-Chloro-N-[5-(5-methoxy-2-trifluoromethyl-benzoimidazol-1-yl)-pyrazin-2-yl]-benzamide], the 50% inhibitory concentration (IC50) is 384 nM. In turn, `CCCCc1ccc(C(=O)Nc2cnc(-n3c(C(F)(F)F)nc4cc(OC)ccc43)cn2)cc1` [Compound 117, 4-Butyl-N-[5-(5-methoxy-2-trifluoromethyl-benzoimidazol-1-yl)-pyrazin-2-yl]-benzamide] gave an IC50 of 81 nM. `COc1ccc2c(c1)nc(C(F)(F)F)n2-c1cnc(NC(=O)c2ccc(Br)cc2)cn1` [Compound 107, 4-Bromo-N-[5-(5-methoxy-2-trifluoromethyl-benzoimidazol-1-yl)-pyrazin-2-yl]-benzamide] registered a half-inhibitory concentration (IC50) of 18 nM. `COc1ccc2c(c1)nc(C(F)(F)F)n2-c1cnc(NC(=O)c2cccc([N+](=O)[O-])c2)cn1` [Compound 98, N-[5-(5-Methoxy-2-trifluoromethyl-benzoimidazol-1-yl)-pyrazin-2-yl]-3-nitro-benzamide]: the IC50 came out at 104 nM. To `CCCc1ccc(C(=O)Nc2cnc(-n3c(C(F)(F)F)nc4cc(OC)ccc43)cn2)cc1` [Compound 109, N-[5-(5-Methoxy-2-trifluoromethyl-benzoimidazol-1-yl)-pyrazin-2-yl]-4-propyl-benzamide] belongs 279 nM; to `COc1ccc2c(c1)nc(C(F)(F)F)n2-c1cnc(NC(=O)c2cc([N+](=O)[O-])ccc2C)cn1` [Compound 146, N-[5-(5-Methoxy-2-trifluoromethyl-benzoimidazol-1-yl)-pyrazin-2-yl]-2-methyl-5-nitro-benzamide], 18 nM; to `COc1ccc2c(c1)nc(C(F)(F)F)n2-c1cnc(NC(=O)c2ccc(Cl)cc2OC)cn1` [Compound 134, 4-Chloro-2-methoxy-N-[5-(5-methoxy-2-trifluoromethyl-benzoimidazol-1-yl)-pyrazin-2-yl]-benzamide], over 1000 nM. For `COc1ccc(C(=O)Nc2cnc(-n3c(C(F)(F)F)nc4cc(OC)ccc43)cn2)c(F)c1` [Compound 127, 2-Fluoro-4-methoxy-N-[5-(5-methoxy-2-trifluoromethyl-benzoimidazol-1-yl)-pyrazin-2-yl]-benzamide] the value was 105 nM; for `COc1ccc2c(c1)nc(C(F)(F)F)n2-c1cnc(NCC2CCCCC2)cn1` [Compound 73, Cyclohexylmethyl-[5-(5-methoxy-2-trifluoromethyl-benzoimidazol-1-yl)-pyrazin-2-yl]-amine], over 1000 nM; for `COc1ccc2c(c1)nc(C(F)(F)F)n2-c1cnc(NC(=O)c2ccc([N+](=O)[O-])cc2F)cn1` [Compound 150, 2-Fluoro-N-[5-(5-methoxy-2-trifluoromethyl-benzoimidazol-1-yl)-pyrazin-2-yl]-4-nitro-benzamide], 126 nM. To `COc1ccc2c(c1)nc(C(F)(F)F)n2-c1cnc(NC(=O)c2cccc(C)c2C)cn1` [Compound 92, N-[5-(5-Methoxy-2-trifluoromethyl-benzoimidazol-1-yl)-pyrazin-2-yl]-2,3-dimethyl-benzamide] belongs 17 nM; to `COc1ccc2c(c1)nc(C(F)(F)F)n2-c1cnc(NC(=O)c2cccc(Cl)c2)cn1` [Compound 96, 3-Chloro-N-[5-(5-methoxy-2-trifluoromethyl-benzoimidazol-1-yl)-pyrazin-2-yl]-benzamide], 91 nM. `COc1ccc2c(c1)nc(C(F)(F)F)n2-c1cnc(NC(=O)c2ccc(C(F)(F)F)cc2OC)cn1` [Compound 144, 2-Methoxy-N-[5-(5-methoxy-2-trifluoromethyl-benzoimidazol-1-yl)-pyrazin-2-yl]-4-trifluoromethyl-benzamide]: the half-maximal inhibitory concentration (IC50) was over 1000 nM. To `COc1ccc2c(c1)nc(C(F)(F)F)n2-c1cnc(NC(=O)c2ccncc2F)cn1` [Compound 3, 3-Fluoro-N-[5-(5-methoxy-2-trifluoromethyl-benzoimidazol-1-yl)-pyrazin-2-yl]-isonicotinamide] belongs 79 nM; to `COC(=O)c1ccc2c(c1)nc(C(F)(F)F)n2-c1cnc(NC(=O)c2ccncc2C)cn1` [Compound 28, 1-{5-[(3-Methyl-pyridine-4-carbonyl)-amino]-pyrazin-2-yl}-2-trifluoromethyl-1H-benzoimidazole-5-carboxylic acid methyl ester], 112 nM; to `COc1ccc2c(c1)nc(C(F)(F)F)n2-c1cnc(NC(=O)c2cccc(F)c2)cn1` [Compound 88, 3-Fluoro-N-[5-(5-methoxy-2-trifluoromethyl-benzoimidazol-1-yl)-pyrazin-2-yl]-benzamide], 101 nM.

Compound `CCOC(=O)c1cccc(C(=O)Nc2cnc(-n3c(C(F)(F)F)nc4cc(OC)ccc43)cn2)c1` [Compound 114, N-[5-(5-Methoxy-2-trifluoromethyl-benzoimidazol-1-yl)-pyrazin-2-yl]-isophthalamic acid ethyl ester] yielded an IC50 of 88 nM. For `COc1ccc2c(c1)nc(C(F)(F)F)n2-c1cnc(NC(=O)c2ccc(OC)c(OC)c2)cn1` [Compound 126, 3,4-Dimethoxy-N-[5-(5-methoxy-2-trifluoromethyl-benzoimidazol-1-yl)-pyrazin-2-yl]-benzamide] the value was over 1000 nM; for `COc1ccc2c(c1)nc(C(F)(F)F)n2-c1cnc(NC(=O)c2ccc(F)cc2Br)cn1` [Compound 138, 2-Bromo-4-fluoro-N-[5-(5-methoxy-2-trifluoromethyl-benzoimidazol-1-yl)-pyrazin-2-yl]-benzamide], 83 nM. To `COc1cccc(C(=O)Nc2cnc(-n3c(C(F)(F)F)nc4cc(OC)ccc43)cn2)c1` [Compound 104, 3-Methoxy-N-[5-(5-methoxy-2-trifluoromethyl-benzoimidazol-1-yl)-pyrazin-2-yl]-benzamide] belongs 929 nM; to `COc1cc(OC)cc(C(=O)Nc2cnc(-n3c(C(F)(F)F)nc4cc(OC)ccc43)cn2)c1` [Compound 129, 3,5-Dimethoxy-N-[5-(5-methoxy-2-trifluoromethyl-benzoimidazol-1-yl)-pyrazin-2-yl]-benzamide], over 1000 nM.

Turning to `COc1ccc2c(c1)nc(C(F)(F)F)n2-c1cnc(NC(=O)c2cc(F)ccc2Cl)cn1` [Compound 151, 2-Chloro-5-fluoro-N-[5-(5-methoxy-2-trifluoromethyl-benzoimidazol-1-yl)-pyrazin-2-yl]-benzamide], 27 nM corresponded to half-maximal inhibition (IC50). For `COc1ccc2c(c1)nc(C(F)(F)F)n2-c1cnc(NCc2ccccc2Cl)cn1` [Compound 87, (2-Chloro-benzyl)-[5-(5-methoxy-2-trifluoromethyl-benzoimidazol-1-yl)-pyrazin-2-yl]-amine] the value was over 1000 nM.
